Ends that are not written are not given here. FAM = 5(6)-carboxyfluorescein; Ahx = NCCCCCC(=O)O
Assays:
[1] = target: T1, recombinant human macrophage mannose receptor rhMMR/CD206 (Homo sapiens, UniProt P22897); test: Fluorescence anisotropy assay with human recombinant CD206; type: binding; conditions: 100 nM FAM peptide, 0.4 μM protein
T1 construct: purchased R&D Systems 2534-MR-050
T1 sequence (P22897 19-1456): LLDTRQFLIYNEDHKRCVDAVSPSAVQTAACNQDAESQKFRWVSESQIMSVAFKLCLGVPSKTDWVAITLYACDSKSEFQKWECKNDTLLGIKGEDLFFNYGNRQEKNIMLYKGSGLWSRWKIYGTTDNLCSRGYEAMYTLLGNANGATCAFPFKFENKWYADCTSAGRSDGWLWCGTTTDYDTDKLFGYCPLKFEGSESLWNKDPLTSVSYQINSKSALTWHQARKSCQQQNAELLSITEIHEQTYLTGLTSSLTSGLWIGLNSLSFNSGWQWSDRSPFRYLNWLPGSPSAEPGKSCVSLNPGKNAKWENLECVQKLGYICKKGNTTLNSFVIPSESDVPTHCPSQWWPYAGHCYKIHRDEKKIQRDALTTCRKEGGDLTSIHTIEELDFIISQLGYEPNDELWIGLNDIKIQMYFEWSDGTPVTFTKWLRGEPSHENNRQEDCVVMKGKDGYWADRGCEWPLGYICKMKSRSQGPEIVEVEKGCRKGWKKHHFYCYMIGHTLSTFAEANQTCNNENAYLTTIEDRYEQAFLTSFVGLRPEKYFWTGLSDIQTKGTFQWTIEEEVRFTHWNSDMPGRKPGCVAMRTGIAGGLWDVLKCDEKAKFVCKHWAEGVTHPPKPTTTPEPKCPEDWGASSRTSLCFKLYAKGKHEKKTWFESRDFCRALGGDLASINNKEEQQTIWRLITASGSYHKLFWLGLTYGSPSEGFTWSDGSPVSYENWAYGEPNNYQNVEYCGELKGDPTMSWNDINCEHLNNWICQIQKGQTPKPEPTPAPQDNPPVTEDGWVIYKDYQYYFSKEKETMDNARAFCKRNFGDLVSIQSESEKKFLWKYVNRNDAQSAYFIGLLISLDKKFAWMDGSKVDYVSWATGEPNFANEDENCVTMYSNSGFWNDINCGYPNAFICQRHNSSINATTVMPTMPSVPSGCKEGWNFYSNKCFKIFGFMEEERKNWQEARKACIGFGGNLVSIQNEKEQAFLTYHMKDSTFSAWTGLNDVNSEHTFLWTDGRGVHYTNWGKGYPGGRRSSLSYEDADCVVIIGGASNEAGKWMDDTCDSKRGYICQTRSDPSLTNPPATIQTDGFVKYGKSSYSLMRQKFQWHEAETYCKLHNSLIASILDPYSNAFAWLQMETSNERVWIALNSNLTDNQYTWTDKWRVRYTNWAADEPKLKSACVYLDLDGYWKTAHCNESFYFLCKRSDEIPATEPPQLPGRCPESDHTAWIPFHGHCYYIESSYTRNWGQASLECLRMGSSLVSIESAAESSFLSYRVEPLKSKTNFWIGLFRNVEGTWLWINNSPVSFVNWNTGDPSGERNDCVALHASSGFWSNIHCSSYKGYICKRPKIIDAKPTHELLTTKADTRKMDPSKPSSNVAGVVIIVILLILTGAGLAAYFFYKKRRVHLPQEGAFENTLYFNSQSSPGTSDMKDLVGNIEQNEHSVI
Experimental: Time course of fluorescence anisotropy of FAM-mUNO during incubation with human recombinant CD206 (black curve, 3001) or with CD163 (red curve, 3003). The concentration of FAM-mUNO was 100 nM and the concentration of CD206 and CD163 was […]. The anisotropy for the FAM-mUNO alone is shown in the green curve 3004.
Fluorescence anisotropy was also carried out using recombinant human macrophage mannose receptor rhMMR/CD206 to determine whether UNO peptide interactions with mouse CD206 carried over to human CD206. […]
In all experiments, FA signal measurements were done under pseudo first-order conditions with 50 nM singly labelled FAM peptides and 1 μM proteins. […] Assays were carried out in kinetic mode in a total volume of 30 μl at 25° C. on the PHERAstar (BMG Labtech, Germany) microplate reader using an optical module with excitation and emission filters of 485 nm (slit 10 nm) and 520 nm (slit 10 nm), respectively. […] The background fluorescence (receptor and buffer components in the absence of fluorescent ligand) was subtracted independently from all intensity channels. FA signals at time t after initiation of binding reaction was calculated as parameters r(t) from the equation: […]

MEMs in MCF-7 tumors = test: Free peptide homing and immunofluorescence in the orthotopic MCF-7 breast tumor model; type: in vivo, mouse; conditions: 30 nmoles i.v., 2 h
Experimental: A, Thirty nmoles of FAM-UNO were injected intravenously in mice bearing MCF-7 tumors, 21 days after orthotopic inoculation of 5×10^6 cells. […] All images were taken with the same imaging conditions. Scale bar: 100 μm and 50 μm (blow up). […] The tumor tissue from panel A was analyzed by immunofluorescence using rabbit anti-FAM (green), rat anti-HLA ABC (red) and counterstained with DAPI (blue). Scale bar: 50 μm. C, MCF-7 tumors are leaky. Tumor sections were immunostained for endogenous mouse IgG and counterstained with DAPI using the same staining and imaging conditions as in FIG. 17. Scale bar: 100 μm. Representative images from n=3 mice.
Mice were used for homing studies two weeks later.

FAM-UNO: FAM-labeled UNO peptide CSPGAKVRC (SEQ ID NO: 1); 5(6)-carboxyfluorescein with 6-aminohexanoic acid spacer at the N-terminus ({FAM-Ahx}-CSPGAKVRC; cysteine pairing not given here)
change in fluorescence anisotropy (interaction) with human recombinant CD206 [1]: did not cause a change in the fluorescence anisotropy
accumulation in MEMs (MEMs in MCF-7 tumors): selectively accumulated in MEMs
targeting of tumor cells of human origin (HLA ABC+) (MEMs in MCF-7 tumors): did not target the tumor cells of human origin
